What was measured:
AvBD1 = test: RT-qPCR of AvBD1 in HD11 macrophages; format: cell-based, chicken; settings: HD11 cells, 5 μM compound with 2 mM butyrate, 24 h (FIG. 6, Panel B)
Protocol: Culture and stimulation of macrophages. Two different chicken macrophage cell lines, HTC (24) and HD11 (25), were kindly provided by Dr. Narayan C. Rath and Dr. Hyun Lillehoj of USDA-ARS and maintained in RPMI 1640 containing 10% heat-inactivated FBS, 100 U/ml penicillin, and 100 μg/ml streptomycin and subcultured every 3-4 days. After overnight seeding at 1.5×10^6 cells/well in 6-well cell culture plates, cells were treated with different concentrations of each compound for 24 h or with the indicated concentration of each compound for various lengths of time for dose-response and time-course experiments, respectively. […]
Total RNA extraction and gene expression analysis. […] Gene expression was performed using reverse transcription-quantitative PCR (RT-qPCR) as previously described (27-29). […] The cDNA was then diluted 10-fold with RNase-free water prior to real-time PCR using QuantiTect SYBR® Green PCR Kit (Qiagen, Valencia, CA) in 10-μl reactions using primers specific for HDP, barrier function, and inflammatory cytokine genes as described (27, 29, 30). […] The fold changes in gene expression in the cells treated with individual compounds or in combinations were calculated relative to the cells treated with an equal volume of RPMI 1640 or DMSO using the ΔΔCt method (31).

IL-1β = test: RT-qPCR of IL-1β in HTC cells with or without LPS; format: cell-based, chicken
Protocol: Culture and stimulation of macrophages. Two different chicken macrophage cell lines, HTC (24) and HD11 (25), were kindly provided by Dr. Narayan C. Rath and Dr. Hyun Lillehoj of USDA-ARS and maintained in RPMI 1640 containing 10% heat-inactivated FBS, 100 U/ml penicillin, and 100 μg/ml streptomycin and subcultured every 3-4 days. After overnight seeding at 1.5×10^6 cells/well in 6-well cell culture plates, cells were treated with different concentrations of each compound for 24 h or with the indicated concentration of each compound for various lengths of time for dose-response and time-course experiments, respectively. To study the synergy between HMTi/DNMTi and HDACi, different concentrations of an HMTi or DNMTi were added to the cells in the presence or absence of an HDACi for 24 h, followed by RNA isolation and HDP gene expression analysis as described below. HTC cells were also stimulated with butyrate, BIX01294, or their combination for 24 h, followed by 3-h stimulation with 10 ng/ml LPS and subsequent expression analysis.
Total RNA extraction and gene expression analysis. Total RNA was extracted using RNAzol (Molecular Biology Research Center, Cincinnati, OH) according to the manufacturer's protocol. Gene expression was performed using reverse transcription-quantitative PCR (RT-qPCR) as previously described (27-29). Reverse transcription was performed with 300 ng of total RNA and Maxima® First Strand cDNA Synthesis Kit (ThermoFisher Scientific, Pittsburgh, PA). The cDNA was then diluted 10-fold with RNase-free water prior to real-time PCR using QuantiTect SYBR® Green PCR Kit (Qiagen, Valencia, CA) in 10-μl reactions using primers specific for HDP, barrier function, and inflammatory cytokine genes as described (27, 29, 30). PCR was run in CFX Connect Real-Time PCR System (Bio-Rad, Hercules, CA) using the following program: 95° C. for 10 min, followed by 40 cycles of 94° C. for 15 sec, 55° C. for 20 sec, and 72° C. for 30 sec. The specificity of PCR reactions was confirmed by the melting curve analysis. The glyceraldehyde-3-phosphate dehydrogenase (GAPDH) gene was used as the reference for data normalization. The fold changes in gene expression in the cells treated with individual compounds or in combinations were calculated relative to the cells treated with an equal volume of RPMI 1640 or DMSO using the ΔΔCt method (31).

AvBD9 = test: RT-qPCR of AvBD9 in peripheral blood mononuclear cells (PBMCs); format: cell-based; settings: chicken PBMCs, 24 h (FIG. 6, Panel F)
Protocol: Isolation, culture, and stimulation of chicken peripheral blood mononuclear cells (PBMCs). Chicken PBMCs were isolated from EDTA-anticoagulated venous blood collected from 2- to 4-week-old broiler chickens through gradient centrifugation using Histopaque 1077 (Millipore Sigma) as previously described (22, 26). PBMCs were seeded at 3×10^7 cells/well in 6-well cell culture plates and stimulated with different concentrations of an HMTi or DNMTi with or without 1 mM butyrate for 24 h, followed by RNA isolation and HDP gene expression analysis as described below.
Total RNA extraction and gene expression analysis. Total RNA was extracted using RNAzol (Molecular Biology Research Center, Cincinnati, OH) according to the manufacturer's protocol. Gene expression was performed using reverse transcription-quantitative PCR (RT-qPCR) as previously described (27-29). […] The cDNA was then diluted 10-fold with RNase-free water prior to real-time PCR using QuantiTect SYBR® Green PCR Kit (Qiagen, Valencia, CA) in 10-μl reactions using primers specific for HDP, barrier function, and inflammatory cytokine genes as described (27, 29, 30). […] The fold changes in gene expression in the cells treated with individual compounds or in combinations were calculated relative to the cells treated with an equal volume of RPMI 1640 or DMSO using the ΔΔCt method (31).

SMILES: COc1cc2nc(N3CCCN(C)CC3)nc(NC3CCN(Cc4ccccc4)CC3)c2cc1OC [BIX01294]
- AvBD1 induction, combination with butyrate (AvBD1): synergistically induced, albeit at lower magnitudes
- effect on LPS-induced IL-1B expression, combination with butyrate (IL-1β; 5 μM BIX01294 + 2 mM butyrate 24 h, then 10 ng/ml LPS 3 h (FIG. 8, Panel D)): significant reduction
- IL-1β synthesis, combination with butyrate (IL-1β; 5 μM BIX01294 + 2 mM butyrate, without LPS (FIG. 8, Panel D)): tended to have a synergistic effect
- effect on LPS-induced IL-1β expression (IL-1β; compound alone 24 h, then 10 ng/ml LPS 3 h (FIG. 8, Panel D)): opposite effect
- activity in inducing gene expression of IL-1β (IL-1β; compound alone (2 mM butyrate or 5 μM BIX01294), without LPS (FIG. 8, Panel D)): no or weak activity
- AvBD9 induction (AvBD9; BIX01294 alone): induced AvBD9 in a dose-dependent manner
- synergy in AvBD9 induction with butyrate (AvBD9; BIX01294 with 1 mM butyrate): obvious synergy

— patent US20250144056A1, “ANTIMICROBIAL HOST DEFENSE PEPTIDE-INDUCING COMPOSITIONS AND METHODS OF PRODUCTION AND USE THEREOF” (Board of Regents for the Oklahoma Agricultural and …, priority 2022, published 2025)
